Common to all, as to test: biochemical
Common to all, as to format: binding

One assay addresses T1, CRKL (Homo sapiens, UniProt P46109).
T1 construct: the DNA-tagged SH2 domain concentrations used in this study were <0.1 nM; made in house; host or cells: HEK293 (transient transfection; unpurified extract)
The note with it: for percent of DMSO vehicle control at 10 µM / remaining activity at 10 µM: read-out: percent of DMSO vehicle control.

The next assay deals with T2, FER (Homo sapiens, UniProt P16591).
T2 construct: the DNA-tagged SH2 domain concentrations used in this study were <0.1 nM; made in house; host or cells: HEK293 (transient transfection; unpurified extract)
T2 sequence (P16591 460-550 limits assumed): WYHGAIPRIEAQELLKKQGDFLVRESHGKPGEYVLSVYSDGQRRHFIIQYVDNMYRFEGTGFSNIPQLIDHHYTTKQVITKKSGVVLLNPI
The note with it: for percent of DMSO vehicle control at 10 µM / remaining activity at 10 µM: read-out: percent of DMSO vehicle control.

A further assay concerns the target T3, HCK (Homo sapiens, UniProt P08631).
T3 construct: the DNA-tagged SH2 domain concentrations used in this study were <0.1 nM; made in house; host or cells: HEK293 (transient transfection, unpurified extract)
The note with it: for remaining activity at 10 µM: read-out: percent of DMSO vehicle control.

Another assay deals with T4, LCK (Homo sapiens, UniProt P06239).
T4 construct: the DNA-tagged SH2 domain concentrations used in this study were <0.1 nM; made in house; host or cells: HEK293 (transient transfection, unpurified extract)
T4 sequence (P06239 127-224 limits assumed): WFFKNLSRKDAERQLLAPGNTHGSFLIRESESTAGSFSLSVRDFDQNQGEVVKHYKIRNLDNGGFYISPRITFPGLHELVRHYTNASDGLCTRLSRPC
The note with it: for percent of DMSO vehicle control at 10 µM / remaining activity at 10 µM: read-out: percent of DMSO vehicle control.

Another assay deals with T5, STAT1 (Homo sapiens, UniProt P42224).
T5 construct: made in house; host or cells: HEK293 (transient transfection), unpurified extract
T5 sequence (P42224 1-750): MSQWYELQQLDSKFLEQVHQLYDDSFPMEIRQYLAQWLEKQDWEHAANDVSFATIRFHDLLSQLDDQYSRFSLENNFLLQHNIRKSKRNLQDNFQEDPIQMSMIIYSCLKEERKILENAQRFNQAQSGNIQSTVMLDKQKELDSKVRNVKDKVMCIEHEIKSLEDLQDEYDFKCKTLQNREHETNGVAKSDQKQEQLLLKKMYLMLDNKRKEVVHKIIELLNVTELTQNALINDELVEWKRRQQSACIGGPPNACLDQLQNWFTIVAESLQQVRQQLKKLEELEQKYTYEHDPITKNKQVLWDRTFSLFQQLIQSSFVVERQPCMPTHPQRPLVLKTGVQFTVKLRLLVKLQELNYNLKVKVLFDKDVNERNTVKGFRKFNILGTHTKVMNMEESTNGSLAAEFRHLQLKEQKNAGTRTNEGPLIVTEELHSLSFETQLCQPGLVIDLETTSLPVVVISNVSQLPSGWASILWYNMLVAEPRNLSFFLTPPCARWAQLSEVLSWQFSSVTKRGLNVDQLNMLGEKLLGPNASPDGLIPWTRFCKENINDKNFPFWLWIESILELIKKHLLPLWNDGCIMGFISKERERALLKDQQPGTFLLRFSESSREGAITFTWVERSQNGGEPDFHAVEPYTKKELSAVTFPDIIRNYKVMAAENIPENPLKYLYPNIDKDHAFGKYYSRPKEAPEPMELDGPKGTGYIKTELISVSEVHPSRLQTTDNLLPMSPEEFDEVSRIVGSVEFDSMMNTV
The note with it: for remaining activity at 10 µM: read-out: percent of DMSO vehicle control.

The target in the next assay is T6, STAT6 (Homo sapiens, UniProt P42226).
T6 construct: made in house; host or cells: HEK293 (transient transfection), unpurified extract
T6 sequence (P42226 1-847): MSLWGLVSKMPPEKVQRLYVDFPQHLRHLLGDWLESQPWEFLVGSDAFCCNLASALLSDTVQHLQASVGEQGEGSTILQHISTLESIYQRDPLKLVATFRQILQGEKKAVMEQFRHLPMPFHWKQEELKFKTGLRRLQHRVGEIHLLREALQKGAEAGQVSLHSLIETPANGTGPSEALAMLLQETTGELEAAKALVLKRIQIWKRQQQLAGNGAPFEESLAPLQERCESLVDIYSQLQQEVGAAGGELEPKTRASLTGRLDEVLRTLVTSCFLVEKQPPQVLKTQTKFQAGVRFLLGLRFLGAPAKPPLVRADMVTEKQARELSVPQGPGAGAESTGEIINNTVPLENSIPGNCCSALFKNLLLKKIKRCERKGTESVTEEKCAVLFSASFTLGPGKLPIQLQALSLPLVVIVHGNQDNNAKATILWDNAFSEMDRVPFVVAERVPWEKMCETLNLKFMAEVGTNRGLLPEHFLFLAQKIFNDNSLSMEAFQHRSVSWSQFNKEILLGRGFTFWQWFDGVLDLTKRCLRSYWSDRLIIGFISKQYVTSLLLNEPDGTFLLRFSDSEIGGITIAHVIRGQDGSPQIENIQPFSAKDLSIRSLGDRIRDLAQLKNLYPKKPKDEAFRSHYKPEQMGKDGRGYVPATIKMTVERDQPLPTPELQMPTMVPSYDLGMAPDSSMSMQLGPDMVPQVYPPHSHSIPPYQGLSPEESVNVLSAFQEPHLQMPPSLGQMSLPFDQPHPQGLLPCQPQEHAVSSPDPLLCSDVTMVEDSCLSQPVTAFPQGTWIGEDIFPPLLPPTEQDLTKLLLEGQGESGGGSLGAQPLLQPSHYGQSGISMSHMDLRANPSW
The note with it: for percent of DMSO vehicle control at 10 µM / remaining activity at 10 µM: read-out: percent of DMSO vehicle control.

Like-named read-outs stand apart in the source and are kept apart here. Non-standard residues stand in square brackets, D forms with d. Residues, ends and D or L forms follow the SMILES beside them. *: point of attachment. pY = N[C@@H](Cc1ccc(OP(=O)(O)O)cc1)C(=O)O; Caffeoyl = O=C(/C=C/c1ccc(O)c(O)c1)*

T3 sequence (P08631 144-241 limits assumed): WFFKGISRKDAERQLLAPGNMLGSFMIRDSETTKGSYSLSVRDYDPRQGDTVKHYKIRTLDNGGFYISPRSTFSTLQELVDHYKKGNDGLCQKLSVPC
T1 sequence (P46109 14-102 limits assumed): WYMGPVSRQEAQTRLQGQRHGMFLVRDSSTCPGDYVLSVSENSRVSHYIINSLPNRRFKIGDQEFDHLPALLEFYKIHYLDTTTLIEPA

Consider `CC[C@H](C)[C@H](NC(=O)[C@H](CCC(=O)O)NC(=O)[C@H](CCC(=O)O)NC(=O)[C@H](Cc1ccc(OP(=O)(O)O)cc1)NC(C)=O)C(=O)N[C@@H](CCC(=O)O)C(N)=O` [Ac-pYEEIE-NH2] (Ac-[pY]EEIE-NH2), for which the “percent of DMSO vehicle control” value on CRKL (primary screen, 10 μM) came out at 131.3%; on FER (primary screen, 10 μM), 37.4%; at HCK (primary screen, 10 μM) it was 82.2%; on LCK (primary screen, 10 μM) it was 44.2±3.3%; at STAT1 (primary screen, 10 μM), 69.3%; on STAT6 (primary screen, 10 μM), 162.5%.

Regarding `CC(=O)N[C@@H](Cc1ccc(CP(=O)(O)O)cc1)C(=O)NC1(C(=O)N[C@@H](CC(N)=O)C(=O)NCCCc2c(O)ccc3ccccc23)CCCCC1` [CGP78850], the percent of DMSO vehicle control at 10 µM on CRKL was 36.4 ± 18.5%; on FER it was 136 ± 7.5%; at LCK, 46 ± 3.7%; at STAT6 it was 104 ± 11%. The remaining activity at 10 µM on HCK was 60 ± 12.1%; at STAT1 it was 71.2 ± 2.1%.

What is called Kd is a measure of binding affinity in units of concentration. On to `CC[C@H](C)[C@H](NC(=O)[C@H](CCC(=O)O)NC(=O)[C@H](CCC(=O)O)NC(=O)[C@H](Cc1ccc(OP(=O)(O)O)cc1)NC(=O)/C=C/c1ccc(O)c(O)c1)C(=O)N[C@@H](CCC(=O)O)C(=O)O` [Caffeic acid-pYEEIE] (Caffeoyl-[pY]EEIE-OH), for which the percent of DMSO vehicle control at 10 µM at CRKL amounted to 42.1 ± 6%; at FER, 0.8 ± 0.8%; on LCK, 0%; at STAT6, 103 ± 16.9%. The figures for the Kd on FER, on HCK and on LCK were 62 ± 86 nM, 6 ± 0.97 nM and 3.7 ± 0.62 nM, respectively. For the same compound, the remaining activity at 10 µM at HCK was 0%; on STAT1, 27.1 ± 21.3%. Further, the KD result at STAT1 (dose-response) was “No Hit”.

Consider `O=C(CCl)Nc1cccc(CNC(=O)[C@H](Cc2ccc(OP(=O)(O)O)cc2)NC(=O)Cc2ccc(F)cc2)c1` [MN551], for which the remaining activity at 10 µM on CRKL (primary screen, 10 μM) worked out at 202%; at FER (primary screen, 10 μM), 1.1 ± 0.2%; at HCK (primary screen, 10 μM), 92.7%; at LCK (primary screen, 10 μM), 98.7 ± 0.5%; on STAT1 (primary screen, 10 μM), 49.8 ± 4.1%; at STAT6 (primary screen, 10 μM), 37.2%.

For the compound `NC(=O)CC[C@H](NC(=O)[C@@H]1CC[C@@H]2CCN(C(=O)CCCCCC#Cc3cccc4c3CN(C3CCC(=O)NC3=O)C4=O)C[C@H](NC(=O)c3cc4cc(C(F)(F)P(=O)(O)O)ccc4[nH]3)C(=O)N21)C(=O)NC(c1ccccc1)c1ccccc1` (some centres unmarked) [SD-36], the percent of DMSO vehicle control at 10 µM at CRKL was determined as 119%; on FER, 74.4 ± 18.6%; on LCK it was 97.3 ± 3.9%; on STAT6, 4.2 ± 0.1%. For the same compound, the values for the remaining activity at 10 µM at HCK and at STAT1 were 56.4 ± 3.2% and 9.1%, respectively. Also, the values for the Kd on STAT1 (dose-response) and at STAT6 (dose-response) were 180 ± 61 nM and 1070 ± 740 nM, respectively.

Regarding `CC(=O)N1CC[C@H]2CC[C@@H](C(=O)N[C@@H](CCC(N)=O)C(=O)NC(c3ccccc3)c3ccccc3)N2C(=O)[C@@H](NC(=O)c2cc3cc(C(F)(F)P(=O)(O)O)ccc3[nH]2)C1` [SI-109], the percent of DMSO vehicle control at 10 µM was 125% on CRKL, 107% at FER, 127% at LCK and 44.5 ± 2.9% on STAT6. Moreover, the remaining activity at 10 µM at HCK amounted to 91.9%; on STAT1, 0%. Besides, the figures for the Kd on STAT1 and on STAT6 were 180 ± 35 nM and 1400 ± 0.15 nM, respectively.

`C/C(=C\C(=O)N[C@H](C(=O)N1CCC[C@H]1C(=O)N(c1ccccc1)c1ccc(I)cc1)C(C)(C)C)c1ccc(OP(=O)(O)O)cc1` [STAT6-IN-1]: the remaining activity at 10 µM stood at 42.4 ± 0.9% on CRKL (primary screen, 10 μM); 8.5 ± 0.1% at FER (primary screen, 10 μM); 48.8 ± 5.2% on HCK (primary screen, 10 μM); 48.3 ± 1.3% at LCK (primary screen, 10 μM); 0% on STAT1 (primary screen, 10 μM); 0% at STAT6 (primary screen, 10 μM). The Kd amounted to 1400 ± 71 nM at FER (dose-response, read-out: KD); 330 ± 73 nM on STAT1 (dose-response, read-out: KD); 0.68 nM on STAT6 (dose-response, read-out: KD).

Turning to `CC(C)(C)[C@H](NC(=O)/C=C/c1ccc(OP(=O)(O)O)cc1)C(=O)N1CCC[C@H]1C(=O)N(c1ccccc1)c1ccc(I)cc1` [STAT6-IN-3], the remaining activity at 10 µM worked out at 102 ± 19.9% at CRKL (primary screen, 10 μM); 10.7 ± 34% on FER (primary screen, 10 μM); 77.4 ± 4.3% on HCK (primary screen, 10 μM); 72 ± 20.4% on LCK (primary screen, 10 μM); 0.7 ± 0.6% at STAT1 (primary screen, 10 μM); 0% at STAT6 (primary screen, 10 μM). Besides, the Kd on FER (dose-response, read-out: KD) stood at 8000 ± 8700 nM; on STAT1 (dose-response, read-out: KD), 670 ± 330 nM; at STAT6 (dose-response, read-out: KD), 8.6 nM.

With `O=C(COc1ccc2cc(C(=O)Nc3ccccc3)ccc2c1)NCc1ccc(OP(=O)(O)O)c(OP(=O)(O)O)c1` [Stafib-1], the remaining activity at 10 µM on CRKL (primary screen, 10 μM) is 120%; at FER (primary screen, 10 μM), 10.8%; on HCK (primary screen, 10 μM), 77 ± 19.3%; on LCK (primary screen, 10 μM), 97.4 ± 7.6%; on STAT1 (primary screen, 10 μM) it was 48.2 ± 5.4%; at STAT6 (primary screen, 10 μM) it was 18.2%. Besides, the Kd at FER (dose-response, read-out: KD) was determined as 1900 nM; at STAT1 (dose-response, read-out: KD) it was 37000 nM; at STAT6 (dose-response, read-out: KD) it was 7300 ± 2300 nM.

The values above are taken from PMC12951562, “SH2scan: Mapping SH2 Domain-Ligand Binding Selectivity for Inhibitors and Degraders” (Journal of Medicinal Chemistry, 2026).
